Laboratory results as given in paper PMC9725750, “The clinical pharmacology of tafenoquine in the radical cure of Plasmodium vivax malaria: An individual patient data meta-analysis” (eLife, 2022).
Read-outs that look alike come from different tables or passages of the source.

Assays:
CYP2D6 = CYP2D6 activity score (poor vs normal/extensive metabolisers): association with recurrence and half-life; format: in vivo, human
Source text: CYP2D6 genotyping data were available for patients enrolled in DETECTIVE part 2 and GATHER. We mapped CYP2D6 diplotypes to an activity score using the standard scoring system ([Caudle et al., 2020]) (note that under the updated scoring system the *10 allele has a score of 0.25 instead of 0.5). The activity score cannot be used as a linear predictor (e.g. a score of 1 cannot be interpreted as twice the metabolic activity of a score of 0.5). For this reason, to assess association with recurrence, we dichotomised the activity scores into poor metabolisers (≤0.5) versus normal/extensive metabolisers (>0.5) ([Caudle et al., 2020]).

blood MetHb = experiment: Blood methaemoglobin (MetHb) concentration on day 7 by pulse CO-oximeter; format: in vivo, human
Source text: All patients in the phase 1 trial and the three efficacy trials had frequent blood MetHb measurements taken using non-invasive signal extraction pulse CO-oximeter handheld machines. For the three efficacy trials, we excluded measurements taken at or after recurrence of vivax malaria. Because erroneous readings from the handheld oximeters can occur, we inspected visually the longitudinal MetHb curves for each patient. […] All patients from this site were excluded from the MetHb analysis ( n =91), resulting in a total of 9632 MetHb measurements across 746 P. vivax infected patients and 72 healthy volunteers.

[1] = cited from earlier work
[2] = Population pharmacokinetic modelling of plasma tafenoquine (patients and healthy volunteers); format: in vivo, human; settings: for Patient – MTT covariate / Patient – Vc/F covariate / Patient – Vp/F covariate: Malaria patients: 1 + Θ; for Vomit – F covariate: Vomiting: 1 + Θ; for Age – CL/F covariate: linear, 1 + Θ × (Age-35); for Vd/F: human, plasma, oral, read-out: Vc/F, apparent central volume of distribution; for IIV CL/F, inter-individual variability / IIV F, inter-individual variability / IIV MTT, inter-individual variability / IIV Q/F, inter-individual variability / IIV Vp/F, inter-individual variability / RUV, additive residual error: variance estimate
Source text: Tafenoquine pharmacokinetics have been described in detail previously ([Thakkar et al., 2018]). Tafenoquine is a slowly eliminated 8-aminoquinoline antimalarial drug with a terminal elimination half-life of around 15 days. The metabolites have not been well characterised. Tafenoquine pharmacokinetics have been characterised previously by a two-compartment pharmacokinetic (PK) model (i.e. bi-exponential decay model) with allometric scaling of clearance and volume parameters ([Thakkar et al., 2018]). We inspected visually all individual drug level profiles and excluded 10 concentrations from 8 patients which were substantial outliers. A total of 15 malaria patients vomited within one hour of drug administration. […] One patient was not re-dosed and had very low tafenoquine levels during follow-up. We removed this patient from all analyses as it is difficult to estimate the amount of drug ingested. For the remaining 14 patients who vomited and were re-dosed, time since dose was calculated as the time since the second dose (in some patients this was the next day). All available tafenoquine concentration measurements were transformed into their natural logarithms and characterised using nonlinear mixed-effects modelling in the software NONMEM v7.4 (Icon Development Solution, Ellicott City, MD). […] One-, two-, and three-compartment dispositional models were evaluated, as well as different absorption models (i.e. first-order absorption and a fixed number of transit absorption compartments). Inter-individual variability was implemented as an exponential function of all structural PK parameters. The first-order conditional estimation method with interactions (FOCE-I) and subroutine ADVAN5 TRANS1 were used throughout the study. Body weight was implemented as a fixed allometric function on clearance parameters (exponent of 0.75) and as a linear function on volume parameters (exponent of 1.0). Additional, biologically relevant, covariates (i.e. age, sex, vomiting, tafenoquine formulation and patient vs healthy volunteers) were evaluated on all PK parameters using a linearized stepwise addition (p<0.01) and backward elimination (p<0.001) covariate approach.
Potential model mis-specification and systematic errors were evaluated by basic goodness-of-fit diagnostics. Model robustness and parameter confidence intervals were evaluated by a sampling-important-resampling (SIR) procedure ([Dosne et al., 2017]). Predictive performance of the final model was illustrated by prediction-corrected visual predictive checks (n=2,000) ([Bergstrand et al., 2011]). The 5th, 50th, and 95th percentiles of the observed concentrations were overlaid with the 95% confidence intervals of each simulated percentile to detect model bias. Under the population mixed-effects model we estimated for each healthy volunteer and each patient in the three efficacy studies: (i) the area under the plasma concentration time curve ( AUC[0,∞ ); (ii) the maximum peak concentration ( Cmax ); and (iii) the terminal elimination half-life (t1/2). […] Details of the final model are given in Appendix 6.
For the terminal elimination half-life, multiple patients had estimated values greater than 30 days. On examination, the NONMEM model estimates of the terminal elimination half-life were not robust with respect to the model structure. In order to derive robust half-life estimates, we fit a robust (using a student- t likelihood, [Lange et al., 1989]) Bayesian hierarchical linear model to the observed log-concentrations post day 4 (terminal phase; random intercept and slope). […] The half-life is then defined as -log(2)/βi where βi is the individual slope estimate for patient i . Values below the lower limit of quantification were treated as left-censored observations with censoring value equal to log(2 ng/ml). The model included an interaction term between time and the log patient weight (clearance was associated with weight); and a dose (mg/kg) dependent intercept term. […]

[3] = set-up: method as in Shanks et al., 2001; settings: ref Shanks et al., 2001, cited from earlier work
[4] = population estimate (%RSE), typical healthy individual 70 kg, 35 years

COc1cc(C)c2c(Oc3cccc(C(F)(F)F)c3)c(OC)cc(NC(C)CCCN)c2n1 (stereo not shown) [tafenoquine]
OR for recurrence at 4 months, poor versus normal/extensive metabolisers (CYP2D6; CYP2D6 activity score ≤0.5 vs >0.5, 95% CI 0.4 to 2.2): 0.9 | change in tafenoquine elimination half-life in poor versus normal/extensive metabolisers (CYP2D6; activity score ≤0.5, n=35 vs n=356, 95% CI –1.22 to 0.94): –0.15 days | increase in day 7 MetHb concentrations per additional mg/kg (blood MetHb; 95% CI 17% to 21%): 19% | lower day 7 methaemoglobinaemia in healthy volunteers compared to patients infected with P. vivax (blood MetHb; adjusted for mg/kg dose, 95% CI 0 to 34%, p=0.02): 15% | day of peak MetHb levels (blood MetHb; after single dose tafenoquine + chloroquine): ~7 days | route of elimination ([1]; ref Brueckner et al., 1998): eliminated via biliary excretion with enterohepatic recirculation, but is not eliminated in the urine | persistence of plasma concentrations above a plausible minimum inhibitory concentration for the asexual activity ([1]; ref Dow and Smith, 2017): up to three months | terminal elimination half-life ([1]; ref Thakkar et al., 2018): about 15 days | CL/F, oral elimination clearance ([2]; SIR median (95% CI)): 3.14 (2.71–3.70) L/h | MTT, mean absorption transit time over 6 transit compartments ([2]; SIR median (95% CI)): 3.05 (2.30–3.87) h | Vp/F, apparent peripheral volume of distribution ([2]; SIR median (95% CI)): 318 (248–424) L | Patient – MTT covariate ([2]; SIR median (95% CI)): 0.929 (0.605–1.51) | Patient – Vc/F covariate ([2]; SIR median (95% CI)): –0.282 (-0.0784–-0.395) | Patient – Vp/F covariate ([2]; SIR median (95% CI)): 1.30 (0.670–1.88) | Vomit – F covariate ([2]; SIR median (95% CI)): 0.434 (0.315–0.608) | Age – CL/F covariate ([2]; SIR median (95% CI)): –0.00435 (-0.00206–-0.00589) | decrease in CL/F per 10 years of age increase from the median age of 35 years ([2]; covariate Age – CL/F, final model): 4.34% | lower central volume of distribution in patients compared to healthy volunteers ([2]; covariate Patient – Vc/F): 27.6% | higher total dose when 1st dose was vomited and re-administered ([2]; covariate Vomit – F, relative oral bioavailability): 44.7% | Vd/F ([2]; SIR median (95% CI)): 1360 L | Vd/F [2, 4]: 1330 L | Patient – MTT covariate ([2]; population estimate (%RSE)): 0.937 (24.7) | Patient – Vc/F covariate ([2]; population estimate (%RSE)): –0.276 (29.4) | Patient – Vp/F covariate ([2]; population estimate (%RSE)): 1.40 (21.6) | Vomit – F covariate ([2]; population estimate (%RSE)): 0.447 (16.3) | Age – CL/F covariate ([2]; population estimate (%RSE)): –0.00434 (23.4) | CL/F, oral elimination clearance [2, 4]: 3.14 (8.43) L/h | MTT, mean absorption transit time over 6 transit compartments [2, 4]: 3.14 (12.8) h | Vp/F, apparent peripheral volume of distribution [2, 4]: 311 (14.4) L | IIV CL/F, inter-individual variability ([2]; SIR median (95% CI)): 0.0349 (0.0193–0.0451) | IIV F, inter-individual variability ([2]; SIR median (95% CI)): 0.0870 (0.0559–0.120) | IIV MTT, inter-individual variability ([2]; SIR median (95% CI)): 0.0887 (0.0585–0.124) | IIV Q/F, inter-individual variability ([2]; SIR median (95% CI)): 0.156 (0.1000–0.226) | IIV Vp/F, inter-individual variability ([2]; SIR median (95% CI)): 0.0265 (0.0153–0.0400) | RUV, additive residual error ([2]; SIR median (95% CI)): 0.0240 (0.0170–0.0333) | IIV CL/F, inter-individual variability ([2]; population estimate (%RSE)): 0.0338 (18.8) | IIV F, inter-individual variability ([2]; population estimate (%RSE)): 0.0850 (19.2) | IIV MTT, inter-individual variability ([2]; population estimate (%RSE)): 0.0831 (21.0) | IIV Q/F, inter-individual variability ([2]; population estimate (%RSE)): 0.151 (20.5) | IIV Vp/F, inter-individual variability ([2]; population estimate (%RSE)): 0.0256 (25.3) | RUV, additive residual error ([2]; population estimate (%RSE)): 0.0225 (18.8) | haemolytic outcome ([3]; female heterozygous for G6PD deficiency (A- variant), total dose 1200 mg over 3 days): severe haemolytic reaction | drop in haemoglobin ([3]; homozygous G6PD deficient female (A- variant), 1200 mg over 3 days, remained asymptomatic): ~3 g/dL
